The values that follow come from patent EP0738149B1 (priority 1994, dated 1995).

The test system of data set [1] is mice. Nature of the data set: Maximal electroshock (MES) model in mice, i.p.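 As to all read-outs here: Electroshock-induced convulsion model serving to demonstrate antiepileptic efficacy against generalized and partial seizures.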 The format is in vivo. Conditions: for ED50: Mus musculus, ip; for activity in the MES model in mice: statement in words.
A short description of data set [2]: Neurotoxicity in rats (positional sense test and gait stance test), p.o. As to conditions: rat, in vivo, po. The procedure: (§1) Neurotoxicity of the claimed agents was also assessed in mice (i.p. administration) by the rotorod ataxia test and/or in rats (p.o. administration) by positional sense test and gait stance test. […] The term quantitating the neurotoxicity is the medial neurological toxic dose (TD50), was determined in the above tests.

The nature of data set [3]: Neurotoxicity in mice (rotorod ataxia test), i.p. As to conditions: mouse, in vivo, ip. The method, then: as §1
Background: The rotarod test checks motor coordination on a turning rod.

Data set [4] relates to rats. Nature of the data set: Maximal electroshock (MES) model in rats, p.o.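 As to all read-outs here: rat MES model gauging antiepileptic efficacy versus generalized and partial seizures after oral dosing.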 The format is in vivo. Conditions: rats, p.o., Table 15; for ED50: Rattus norvegicus, po, read-out: RATS MES 50. (In the maximal electroshock model the usual endpoint is tonic extension of the hind limbs.)
The test system of data set [5] is mechanically dissociated neonatal rat cerebellum. Description: Reversal of NMDA induced cell death in cultures of neonatal rat cerebellum. The format is cell-based. Conditions: positive control, 0.01 micromoles plus NMDA. The method, then:
The cerebellum was aseptically dissociated from 6 or 7-day old rat pups and placed in a 15ml sterile plastic conical tube containing 3ml of Dulbecco's modified Eagle's medium (DMEM) with a high glucose concentration ([…]) and 2mM (v/v) L-glutamine and an antibiotic antimitotic mixture. The cerebella were then dissociated after 20-25 passages through a sterile 13 gauge, 10cm long stainless steel needle attached to a 5ml syringe with an inserted 45 micrometer pore nylon sieve. The dissociated cells were centrifuged at 200g for 5 minutes. The supernatant was discarded and the cells resuspended in medium enriched with 15% (v/v) heat inactivated fetal calf serum. Cell viability was determined by the tryptan blue exclusion test.
Cells were plated at a density of 200/mm^2 on poly-L-lysine coated surfaces. Poly-L-lysine coated glass coverslips were prepared at least one hour in advance of plating by immersing sterile coverslips in sterile distilled water solution containing 15 microgram/ml poly-L-lysine, and washing in sterile water just prior to use. The plated cells were covered with enriched medium and incubated at 37°C in an atmosphere of 5% CO2 in air and 97% humidity. After three days in culture, the media was replaced with media containing the desired test compound. Each test compound was tested in duplicate. Toxic-dose response was determined for each compound.
Four groups were run in each set of experiments; • I. Control, consisting of enriched media alone, • II. N-methyl-D-aspartate (NMDA, 1mM for 3 hours) as the cytotoxic challenge, • III. Test compound plus NMDA, and • IV. Positive control, spermine(0.01 micromoles) plus NMDA.
Nerve cell survival was evaluated by phase contrast microscopy and tryptan blue staining after 24 hours.
Surviving cells in culture are measured relative to control (100%), as described above. Percent protection is the Cell Survival for the test compound minus the NMDA effect. Thus, maximal protection is 100% minus 30% NMDA effect i.e. […]. The Effective Protection was calculated as the percent of the Percent Protection (X) divided by the maximal protection value (e.g. X x 100/70).

Molecules are shown by their SMILES. Where a name gives a salt, the structure may show the parent alone.

As to `NC(=O)CNC1CCCc2ccccc21` (racemic) [Example 4, (rac)-N-(2-Acetamido)-1-aminotetralin], the “MICE MES ED50” value in data set [1] (i.p., Table 15) is reported as less than 100 mg/kg.
Regarding `CCCC(=O)NC1CCc2ccccc21` (racemic) [Example 11, (rac)-N-Butyryl-1-aminoindan], the TD50 in data set [2] is more than 50 mg/kg; in data set [3] (MICE TD50, mice, Table 15), less than 300 mg/kg. Besides, the ED50 in data set [1] (Table 15) is less than 300 mg/kg; in data set [4], less than 50 mg/kg.
For `c1ccc(CNC2CCc3ccccc32)cc1` (racemic) [Example 16, (rac)-N-Benzyl-1-aminoindan.HCl], the TD50 in data set [2] is more than 50 mg/kg. In data set [1] (Table 15), this molecule gave an ED50 of less than 50 mg/kg. Also, the “RATS MES 50” value in data set [4] is listed as 50 mg/kg.
On to `CC(=O)NC1CCc2cccc(C)c21` (racemic) [Example 20, (rac)-7-Methyl-N-acetyl-1-aminoindan], for which the TD50 was more than 50 mg/kg in data set [2] and 100 mg/kg in data set [3] (MICE TD50). The ED50 in data set [1] (Table 15) is less than 100 mg/kg; in data set [4], less than 50 mg/kg.
Molecule `COc1ccc2c(c1)C(N)CC2` (racemic) [Example 25, (rac)-6-Methoxy-1-aminoindan.HCl] returned a TD50 in data set [3] (MICE TD50, mice, Table 15) of more than 100 mg/kg. The ED50 in data set [1] (Table 15) was less than 100 mg/kg. Also, in data set [4], the “RATS MES 50” value came out at 50 mg/kg.
As to `COc1ccc2c(c1OC)CCC2N` (racemic) [Example 31, (rac)-4,5-Dimethoxy-1-aminoindan.HCl], the TD50 in data set [2] is more than 50 mg/kg; in data set [3] (MICE TD50, mice, Table 15) it was less than 100 mg/kg. Moreover, in data set [1] (Table 15), the ED50 is less than 100 mg/kg. Moreover, the “activity in the MES model in mice” value in data set [1] is “showed activity”.
In turn, `NC1CCc2ccc(O)cc21` (racemic) [Example 34, (rac)-6-Hydroxy-1-aminoindan.HCl] registered a TD50 in data set [3] (MICE TD50, mice, Table 15) of more than 300 mg/kg. The molecule also registered an ED50 in data set [1] (Table 15) of less than 300 mg/kg. In data set [1], the “activity in the MES model in mice” value is listed as “showed activity”.
For the molecule `Cc1ccc2c(c1)CCC2N` (racemic) [Example 38, (rae)-5-Methyl-1-aminoindan.HCl], the TD50 in data set [2] is more than 50 mg/kg; in data set [3] (MICE TD50, mice, Table 15), less than 100 mg/kg. This molecule also registered an ED50 in data set [1] (Table 15) of less than 100 mg/kg. In data set [4], the “RATS MES 50” value was found to be 50 mg/kg.
Consider `c1ccc2c(c1)CCC2NC1CCc2ccccc21` (racemic) [Example 43, (rac)-M,N-Di-(1-indanyl)amine.HCl], for which the TD50 in data set [2] is more than 50 mg/kg; in data set [3] (MICE TD50, mice, Table 15), less than 100 mg/kg. Moreover, in data set [1] (Table 15), the ED50 is less than 100 mg/kg. Also, the “RATS MES 50” value in data set [4] is given as less than 50 mg/kg.
For `NC1Cc2ccccc21` (stereo not drawn) [Example 27, 1-Aminobenzocyclobutene.HCl], the TD50 was more than 50 mg/kg in data set [2] and more than 100 mg/kg in data set [3] (MICE TD50, mice, Table 15). The ED50 in data set [1] (Table 15) is less than 100 mg/kg. Besides, the “RATS MES 50” value in data set [4] is less than 50 mg/kg.
In data set [1] (Table 15), `C#CCN[C@@H]1CCc2ccccc21.CS(=O)(=O)O` [F, (R)-N-propargyl-1-aminoindan mesylate salt] had an ED50 of less than 300 mg/kg.
Take `N[C@H]1CCc2ccc(F)cc21` [K, (S)-6-fluoro-1-aminoindan]: the TD50 in data set [3] (MICE TD50, mice, Table 15) was less than 250 mg/kg; in data set [3] (MICE TD50, mice, Table 16), less than 250 mg/kg. Moreover, the ED50 in data set [1] (Table 15) worked out at 115 mg/kg. Further, in data set [1], the “activity in the MES model in mice” value is “showed activity”.
As to `NCCCNCCCCNCCCN` [Spermine, spermine, reference compound], in data set [5], the “EFFECTIVE PROTECTION” value was 74% and the “PERCENT PROTECTION” value is given as 52%. Also, the “SURVIVING CELL IN CULTURE” value in data set [5] (relative to control (100%)) came to 82%.
